From patent US4220641A, “Organic compounds” (Sandoz Ltd., priority 1977, dated 1980)

Columns and labels:
ear swelling = assay: Oxazolon test in mice; format: in vivo; conditions: 5×70 mg/kg p.o.
Protocol: (b) Oxazolon test in mice:
A decrease in the ear swelling is observed upon administration of 5×70 mg/kg p.o. of the compound.

[1] = system: mice spleen lymphoctyes stimulated with Concanavalin A; assay: lymphocyte stimulation test according to Janossy in vitro; format: cell-based; conditions: concentrations of 0.01 to 10.0 μg/ml, Concanavalin A stimulated mice spleen lymphocytes

SMILES	ear swelling (ear swelling)	inhibition of H^3-thymidine incorporation [1]	inhibition of the blastogenese [1]	inhibition of the proliferation rate [1]
C/C=C/C[C@@H](C)[C@@H](O)[C@H]1C(=O)N[C@@H](C(C)C)C(=O)N(C)CC(=O)N(C)[C@@H](CC(C)C)C(=O)N[C@@H](C(C)C)C(=O)N(C)[C@@H](CC(C)C)C(=O)N[C@@H](C)C(=O)N[C@H](C)C(=O)N(C)[C@@H](CC(C)C)C(=O)N(C)[C@@H](CC(C)C)C(=O)N(C)[C@@H](C(C)C)C(=O)N1C [cyclosporin D]	decrease	strong inhibition	strong inhibition	strong inhibition
CCCC[C@@H](C)[C@@H](O)C1C(=O)N[C@@H](C(C)C)C(=O)N(C)CC(=O)N(C)[C@@H](CC(C)C)C(=O)N[C@@H](C(C)C)C(=O)N(C)[C@@H](CC(C)C)C(=O)N[C@@H](C)C(=O)N[C@H](C)C(=O)N(C)[C@@H](CC(C)C)C(=O)N(C)[C@@H](CC(C)C)C(=O)N(C)[C@@H](C(C)C)C(=O)N1C (some centres unmarked) [dihydrocyclosporin D]	decrease	strong inhibition	strong inhibition	strong inhibition
